{"source": "ChEMBL document CHEMBL5653627", "about": "(J Neurochem, 2017)", "key": {"GL261 [1]": {"tested_on": "GL261", "test": "Antitumor activity against mouse GL261 cells xenografted in C57Bl/6 mouse assessed as decrease in tumor volume at 100 mg/kg,po daily by H and E staining based microscopy", "format": "functional, organism-based"}, "SMA-560 [2]": {"tested_on": "SMA-560", "test": "Antitumor activity against mouse SMA-560 cells xenografted in VM/Dk mouse assessed as decrease in number of CD31-positive intra-tumoral vessels in tumor at 100 mg/kg,po daily with 12 Gy irradition after 2days of treatment initiation by immunohistochemistry analysis", "format": "functional, organism-based"}, "SMA-560 [3]": {"tested_on": "SMA-560", "test": "Antitumor activity against mouse SMA-560 cells xenografted in VM/Dk mouse assessed as increase in number of tumor-infiltrating CD11b positive monocytes/microglia in tumor at 100 mg/kg,po daily by immunohistochemistry analysis", "format": "functional, organism-based"}, "GL261 [4]": {"tested_on": "GL261", "test": "In vivo inhibition of TIE-2 in C57Bl/6 mouse xenografted with mouse GL261 cells assessed as decrease in TIE-2 expression in brain blood vessels at 100 mg/kg,po daily by immunohistochemistry analysis", "format": "functional, organism-based"}, "SMA-540 [5]": {"tested_on": "SMA-540", "test": "Cytotoxicity against mouse SMA-540 cells assessed as reduction in metabolic activity at 0.001 to 100 uM incubated for 72 hrs by MTT assay", "format": "functional, cell-based", "conditions": "dose 0.001-100 µM"}, "[6]": {"test": "Toxicity in C57Bl/6 mouse xenografted with mouse GL261 cells assessed as survival rate at 100 mg/kg,po daily (Rvb=13%)", "format": "organism-based", "conditions": "in vivo"}, "SMA-560 [7]": {"tested_on": "SMA-560", "test": "Induction of apoptosis in mouse SMA-560 cells assessed as live cells at 0.1 uM incubated for 72 hrs by Annexin V-FITC/PI staining based flow cytometric analysis (reference value: 84.6%)", "format": "functional"}, "SMA-560 [8]": {"tested_on": "SMA-560", "test": "Induction of apoptosis in mouse SMA-560 cells assessed as early apoptotic cells at 0.1 uM incubated for 72 hrs by Annexin V-FITC/PI staining based flow cytometric analysis (reference value: 0.0056%)", "format": "functional"}, "[9]": {"target": "T1, Discoidin domain-containing receptor 2 (Homo sapiens, UniProt Q16832)", "T1 sequence (Q16832 whole entry)": "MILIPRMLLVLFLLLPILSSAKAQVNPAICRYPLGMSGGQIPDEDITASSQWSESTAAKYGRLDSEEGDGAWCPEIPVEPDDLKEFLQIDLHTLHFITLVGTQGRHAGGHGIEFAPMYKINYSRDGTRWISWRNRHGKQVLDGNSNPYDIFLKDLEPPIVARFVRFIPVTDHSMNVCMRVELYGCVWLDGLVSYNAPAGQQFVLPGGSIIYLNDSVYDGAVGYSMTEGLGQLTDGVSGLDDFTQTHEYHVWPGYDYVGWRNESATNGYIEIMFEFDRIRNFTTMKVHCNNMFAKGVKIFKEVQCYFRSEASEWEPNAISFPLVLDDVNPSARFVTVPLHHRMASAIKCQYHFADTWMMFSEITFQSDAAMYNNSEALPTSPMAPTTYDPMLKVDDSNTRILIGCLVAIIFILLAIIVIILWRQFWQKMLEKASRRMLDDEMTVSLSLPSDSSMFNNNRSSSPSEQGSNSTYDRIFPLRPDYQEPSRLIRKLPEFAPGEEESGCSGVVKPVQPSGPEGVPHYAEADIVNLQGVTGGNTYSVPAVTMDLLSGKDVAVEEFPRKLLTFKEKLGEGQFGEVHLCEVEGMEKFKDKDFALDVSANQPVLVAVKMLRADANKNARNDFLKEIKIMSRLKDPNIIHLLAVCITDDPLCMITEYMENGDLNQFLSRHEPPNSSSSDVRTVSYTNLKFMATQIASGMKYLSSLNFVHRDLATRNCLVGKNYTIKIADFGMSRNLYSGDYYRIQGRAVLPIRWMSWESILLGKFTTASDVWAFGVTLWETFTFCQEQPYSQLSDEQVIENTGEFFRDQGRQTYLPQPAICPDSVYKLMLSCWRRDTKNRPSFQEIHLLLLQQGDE", "test": "Binding affinity to DDR2 (unknown origin) assessed as dissociation constant by KINOME scan assay"}, "SMA-497 [10]": {"tested_on": "SMA-497", "test": "Anti-clonogenicic activity in mouse SMA-497 cells assessed as reduction in colony formation at 0.1 to 1 uM preincubated for 6 hrs followed by 1 to 9 Gy irradiation with and measured after 10 days by MTT based clonogenic survival assay", "format": "functional, cell-based", "conditions": "dose 0.1-1 µM, time 246.0 hrs"}, "[11]": {"test": "Toxicity in VM/Dk mouse xenografted with mouse SMA-560 cells assessed as survival rate at 100 mg/kg,po daily with 12 Gy irradition after 2days of treatment initiation (Rvb=30%)", "format": "organism-based", "conditions": "in vivo, 48 h"}, "SMA-497 [12]": {"tested_on": "SMA-497", "test": "Induction of cell cycle arrest in mouse SMA-497 cells assessed as accumulation at G0/G1 phase at 0.1 uM incubated for 72 hrs by propidium iodide/RNase staining based flow cytomtery (Rvb= 76%)", "format": "functional"}, "SMA-560 [13]": {"tested_on": "SMA-560", "test": "Antitumor activity against mouse SMA-560 cells xenografted in VM/Dk mouse assessed as decrease in tumor cell proliferation at 100 mg/kg,po daily with 12 Gy irradition after 2days of treatment initiation by Ki67 staining based immunohistochemistry analysis", "format": "functional, organism-based"}, "GL261 [14]": {"tested_on": "GL261", "test": "Antitumor activity against mouse GL261 cells xenografted in C57Bl/6 mouse assessed as decrease in number of CD31-positive intra-tumoral vessels in tumor at 100 mg/kg,po daily by immunohistochemistry analysis", "format": "functional, organism-based"}, "SMA-560 [15]": {"tested_on": "SMA-560", "test": "Antitumor activity against mouse SMA-560 cells xenografted in VM/Dk mouse assessed as decrease in tumor volume at 100 mg/kg,po daily by H and E staining based microscopy", "format": "functional, organism-based"}, "SMA-497 [16]": {"tested_on": "SMA-497", "test": "Anti-clonogenicic activity in mouse SMA-497 cells assessed as reduction in colony formation at 0.1 to 1 uM preincubated for 6 hrs followed by temozolomide addition and measured after 10 days by MTT based clonogenic survival assay", "format": "functional, cell-based", "conditions": "dose 0.1-1 µM, time 246.0 hrs"}, "SMA-497 [17]": {"tested_on": "SMA-497", "test": "Induction of apoptosis in mouse SMA-497 cells assessed as necrotic cells at 0.1 uM incubated for 72 hrs by Annexin V-FITC/PI staining based flow cytometric analysis (reference value: 14.7%)", "format": "functional"}, "SMA-497 [18]": {"tested_on": "SMA-497", "test": "Cytotoxicity against mouse SMA-497 cells assessed as reduction in metabolic activity at 0.001 to 100 uM incubated for 72 hrs by MTT assay", "format": "functional, cell-based", "conditions": "dose 0.001-100 µM"}, "SMA-560 [19]": {"tested_on": "SMA-560", "test": "Induction of cell cycle arrest in mouse SMA-560 cells assessed as accumulation at G0/G1 phase at 0.1 uM incubated for 72 hrs by propidium iodide/RNase staining based flow cytomtery (Rvb= 71%)", "format": "functional"}, "SMA-560 [20]": {"tested_on": "SMA-560", "test": "Induction of apoptosis in mouse SMA-560 cells assessed as late apoptotic cells at 0.1 uM incubated for 72 hrs by Annexin V-FITC/PI staining based flow cytometric analysis (reference value: 1.83%)", "format": "functional"}, "SMA-540 [21]": {"tested_on": "SMA-540", "test": "Antitumor activity against mouse SMA-540 cells xenografted in VM/Dk mouse assessed as decrease in number of CD31-positive intra-tumoral vessels in tumor at 100 mg/kg,po daily by immunohistochemistry analysis", "format": "functional, organism-based"}, "SMA-497 [22]": {"tested_on": "SMA-497", "test": "In vivo inhibition of TIE-2 in VM/Dk mouse xenografted with mouse SMA-497 cells assessed as decrease in TIE-2 expression in brain blood vessels at 100 mg/kg,po daily by immunohistochemistry analysis", "format": "functional, organism-based"}, "GL261 [23]": {"tested_on": "GL261", "test": "Antitumor activity against mouse GL261 cells xenografted in C57Bl/6 mouse assessed as increase in number of tumor-infiltrating CD11b positive monocytes/microglia in tumor at 100 mg/kg,po daily by immunohistochemistry analysis", "format": "functional, organism-based"}}, "note": "Active and inactive are the calls of the source. The rule behind the calls is not given here.", "data": [{"smiles": "Cc1cc(C)c(-n2ccn3nc(-c4cccnc4)cc23)cc1NC(=O)c1cc(C#N)cc(S(F)(F)(F)(F)F)c1", "note": "[BAY-826]", "values": [{"measurement": "Activity", "setting": "GL261 [1]", "result": "inactive"}, {"measurement": "Activity", "setting": "SMA-560 [2]", "result": "Active"}, {"measurement": "Activity", "setting": "SMA-560 [3]", "result": "inactive"}, {"measurement": "inhibition", "setting": "GL261 [4]", "result": "Active"}, {"measurement": "Activity", "setting": "SMA-540 [5]", "result": "inactive"}, {"measurement": "Survival", "setting": "[6]", "result": 15, "unit": "%"}, {"measurement": "Activity", "setting": "SMA-560 [7]", "result": 90.5, "unit": "%"}, {"measurement": "Activity", "setting": "SMA-560 [8]", "result": 0, "unit": "%"}, {"measurement": "Kd", "setting": "[9]", "result": 1.3, "unit": "nM"}, {"measurement": "Activity", "setting": "SMA-497 [10]", "result": "inactive"}, {"measurement": "Survival", "setting": "[11]", "result": 33.5, "unit": "%"}, {"measurement": "Activity", "setting": "SMA-497 [12]", "result": 66, "unit": "%"}, {"measurement": "Activity", "setting": "SMA-560 [13]", "result": "inactive"}, {"measurement": "Activity", "setting": "GL261 [14]", "result": "Active"}, {"measurement": "Activity", "setting": "SMA-560 [15]", "result": "inactive"}, {"measurement": "Activity", "setting": "SMA-497 [16]", "result": "inactive"}, {"measurement": "Activity", "setting": "SMA-497 [17]", "result": 18.3, "unit": "%"}, {"measurement": "Activity", "setting": "SMA-497 [18]", "result": "inactive"}, {"measurement": "Activity", "setting": "SMA-560 [19]", "result": 67, "unit": "%"}, {"measurement": "Activity", "setting": "SMA-560 [20]", "result": 0.66, "unit": "%"}, {"measurement": "Activity", "setting": "SMA-540 [21]", "result": "inactive"}, {"measurement": "inhibition", "setting": "SMA-497 [22]", "result": "Active"}, {"measurement": "Activity", "setting": "GL261 [23]", "result": "inactive"}]}]}
